# Laboratory results reported in PMC6582486, “Stapled EGFR peptide reduces inflammatory breast cancer and inhibits additional HER-driven models of cancer” (Journal of Translational Medicine, 2019).
# Where a SMILES comes first, the peptide text is derived from it. Bridges are numbered along the chain shown (N, C = ends). [ ]: non-standard residue; d: D form. R8 = C=CCCCCCC[C@@](C)(N)C(=O)O; S5 = C=CCCC[C@](C)(N)C(=O)O
# Legend:
# [1] = system: Erlotinib-resistant lung adenocarcinoma PDX TM00784; assay: Lung cancer PDX mouse model TM00784; format: in vivo
# Description: The following PDX mouse models were generated by Jackson Labs (Sacramento, CA): Breast TM01278; Grade 3 invasive ductal carcinoma, primary malignancy; EGFR inactivating R521K mutation; ERBB3 G1288A mutation in kinase domain with unknown effects on activity; increased EGFR/ERBB2/ERBB3. Lung TM00784; Grade 3 lung adenocarcinoma, primary malignancy; EGFR activating L858R mutation; increased EGFR, decreased ERBB2/ERBB3/ERBB4. All animals were maintained as outlined by University of Arizona Institutional Animal Care and Use Committee (IACUC) by the Experimental Mouse Shared Resource (EMSR).
# Fig. 3 SAH5-EJ1 inhibits growth and prolongs survival in PDX models of lung cancer. a, b Cell viability assays performed in A549 or EGFR T790M mutated H1975 lung adenocarcinoma cells over 3 days comparing treatment with Sapitinib (blue lines) to SAH5-EJ1 (red lines). Solid lines represent 24 h; dashed lines represent 72 h. Data shown represent mean ± percent difference of assays performed in quadruplicate. c Reduction in tumor burden in Erlotinib-resistant lung cancer PDX mouse model TM00784 with various doses of intravenous SAH5-EJ1. Control represents water as a vehicle control. *p < 0.05 (Control vs 1 µg/g); **p < 0.01 (Control vs 1 µg/g and vs 10 µg/g). d Kaplan–Meier curve of lung PDX mouse model treated with control (blue line) or either 1 or 10 µg/g SAH5-EJ1 (green line and red line, respectively). Data shown represent mean. N = 6 for all groups
# [2] = system: SUM149-generated tumors; assay: Inflammatory breast cancer SUM149 mouse model; format: in vivo, SCID mice
# Experimental: 26 female SCID mice were injected with 0.1 mL of a cell solution containing 3.84 × 10^6 SUM149 cells resuspended in Trevigen and sterile saline at site L4. Mice were incubated for 35 days to allow tumor growth prior to injection of SAH5-EJ1, and randomized into 3 groups, N = 8 mice/group. Injections of 5 µg/g or 0.5 µg/g in 0.1 mL volumes of SAH5-EJ1 were administered via tail vein every 3 days for 31 days until the administration route changed to intraperitoneal injections through the conclusion of the study. Control injections of equal volumes of sterile water were also performed. All animals were maintained as outlined by University of Arizona Institutional Animal Care and Use Committee (IACUC) by the Experimental Mouse Shared Resource (EMSR).
# Fig. 4 SAH5-EJ1 effectively treats models of basal and inflammatory breast cancers while increasing survival. a Changes in tumor burden in breast cancer PDX mouse model TM01278 with various concentrations of intravenous SAH5-EJ1. Control represents water as a vehicle control. *p < 0.05 (Control vs 1 µg/g); **p < 0.01 (Control vs 1 µg/g and vs 10 µg/g). N = 6 for each condition. b Kaplan–Meier curve of breast PDX mouse model treated with control (blue) or either 1 or 10 µg/g SAH5-EJ1 (green and red, respectively) (red asterisks indicate time point at which mice could no longer receive injections due to site toxicity). Data shown represent mean. N = 6 for all groups. c Cell viability assay performed in SUM149 cells over 3 days comparing treatment with Sapitinib (blue) to SAH5-EJ1 (red) and SAH5-CP (grey). Solid lines represent 24 h; dashed lines represent 72 h. Data shown represent mean ± percent difference of assays performed in triplicate. d Kaplan–Meier curve of inflammatory breast cancer SUM149-injected mouse model treated with injected control (water) (blue) or either 0.5 or 5 µg/g SAH5-EJ1 (green and red, respectively). Data shown represent mean. N = 8 for all groups. e Changes in tumor burden in SUM149-generated tumors with various doses of SAH5-EJ1. Control represents water (blue). […]
smiles,measurement,setting,value
CC[C@H](C)[C@H](NC(=O)[C@H](Cc1c[nH]cn1)NC(=O)[C@H](CCCNC(=N)N)NC(=O)[C@H](CCCNC(=N)N)NC(=O)[C@H](CCCNC(=N)N)NC(=O)[C@H](CCSC)NC(=O)[C@H](Cc1ccccc1)NC(=O)[C@H](C)NC(=O)[C@H](CCCNC(=N)N)NC(=O)[C@H](C)NC(=O)[C@H](CCC(N)=O)NC(=O)[C@H](CCCNC(=N)N)NC(=O)[C@H](C)NC(=O)[C@H](C)NC(=O)[C@H](C)NC(=O)[C@H](CCCNC(=N)N)NC(=O)[C@H](C)NC(=O)[C@@H](N)Cc1ccc(O)cc1)C(=O)N[C@H](C(=O)N[C@@H](CCCNC(=N)N)C(=O)N[C@@H](CCCCN)C(=O)N[C@@H](CCCNC(=N)N)C(=O)N[C@]1(C)CCCCCCC=CCCC[C@@](C)(C(=O)N[C@@H](CCCNC(=N)N)C(=O)N[C@@H](CCC(=O)O)C(N)=O)NC(=O)[C@H](CCC(N)=O)NC(=O)[C@H](CC(C)C)NC(=O)[C@H](CC(C)C)NC(=O)[C@H](CCCNC(=N)N)NC(=O)[C@H](CCCNC(=N)N)NC(=O)[C@H](CC(C)C)NC1=O)C(C)C [SAH5-EJ1] (H-YARAAARQARAFMRRRHIVRKR[R8]LRRLLQ[S5]RE-NH2; staple 23-30),survival relative to control-treated mice,[1]; 1 µg/g (low dose) IV,1.7 ×
same,decrease in average tumor burden,"[1]; 1 µg/g IV, N = 6",> 50%
same,toxicity in the model,[1]; 1 or 10 µg/g IV,no detected toxicity
same,time of treatment until all animals showed no residual tumor burden,"[2]; 0.5 or 5 µg/g every 3 days, IV then IP",≤ 55 days
same,treated mice displaying tumor regrowth,[2]; 0.5 or 5 µg/g groups together,9/16
same,treated mice remaining at the end of the study,"[2]; 0.5 or 5 µg/g, treatment up to 203 days",more than 40%
